Test system: carragheenin edema
Experiment: acute carragheenin edema inhibition (anti-inflammatory effect)
Assay type: in vivo, male rats
Conditions: not given
Protocol: The edema was induced by subcutaneous injection of 1% carraheenin suspension in saline to the hind paws of male rats weighing 150 to 180 g. Each sample was orally given at the dosage of 100 mg/kg just before the inoculation of carragheenin.

Structure (SMILES)	anti-inflammatory effect, inhibition rate (ED50), in words
O=C(c1ccccc1)c1ccccc1F [Active ingredient No. 15, 2-fluorobenzophenone]	especially high inhibition rate
CCCCc1ccc(C(=O)c2ccccc2F)cc1 [Active ingredient No. 8, 4-n-butyl-2'-fluorobenzophenone]	especially high inhibition rate
Cc1cc(C)c(C(=O)c2ccccc2F)c(C)c1 [Active ingredient No. 11, 2-Fluoro-2',4',6'-trimethyl-benzophenone]	especially high inhibition rate
CCCCc1ccc(C(=O)c2ccccc2)cc1 [Active ingredient No. 19, 4-n-butyl benzophenone]	especially high inhibition rate
CCCCCc1ccc(C(=O)c2ccccc2F)cc1 [Active ingredient No. 9, 2-Fluoro-4'-n-amyl-benzophenone]	especially high inhibition rate

Same assay, conditions: 100 mg/kg oral, carragheenin edema, rats; Table 2

Structure (SMILES)	Anti-inf. (edema inhibition rate)
CCCCCCCc1ccc(C(=O)c2ccc(C)cc2)cc1 [compound 85]	18.7%
CCc1ccc(C(=O)c2ccc(OC)cc2)cc1 [compound 107]	20.3%

Same assay, conditions: Rattus norvegicus; Table 2'; 100 mg/kg oral, carragheenin edema, rats; read-out: Anti-inf.

Structure (SMILES)	inhibition in vivo at 100 mg/kg
CCCC(C)c1ccc(C(=O)c2ccccc2F)cc1 (centres unmarked) [compound 121]	64.5%

Same assay, conditions: Rattus norvegicus; oral, carragheenin edema, rats; Table 2; read-out: 50% inhibition rate ED50

Structure (SMILES)	ED50
O=C(c1ccccc1)c1ccccc1F [compound 15]	65 mg/kg
CCCCc1ccc(C(=O)c2ccc(F)cc2C)cc1 [compound 46]	400 mg/kg
CCCCc1ccc(CCCC)c(C(=O)c2ccc(C)cc2)c1 [compound 17]	180 mg/kg
CCCc1ccc(CCC)c(C(=O)c2ccccc2)c1 [compound 16]	140 mg/kg
Cc1ccc(C(=O)c2ccccc2F)c(C)c1 [compound 10]	90 mg/kg
CCCc1ccc(C(=O)c2ccccc2F)cc1 [compound 7]	78 mg/kg
Cc1cc(C)c(C(=O)c2ccc(Cl)cc2)c(C)c1 [compound 14]	130 mg/kg
CCCCc1ccc(C(=O)C(=O)c2ccccc2)cc1 [compound 29]	130 mg/kg
CCCCCc1ccc(C(=O)c2ccccc2F)cc1 [compound 9]	22 mg/kg
CCc1cc(CC)c(C(=O)c2ccccc2)c(CC)c1 [compound 13]	> 400 mg/kg

Same assay, conditions: Table 2'; 100 mg/kg oral, carragheenin edema, rats

Structure (SMILES)	Anti-inf.
CCCCCCCCc1ccc(C(=O)c2cccc(I)c2)cc1 [compound 161]	20.9

Test system: platelet aggregation
Experiment: blood platelet aggregation inhibition, collagen as inducer
Assay type: cell-based
Conditions: 10^-4 mole, rabbit PRP
From the text: Blood platelet aggregation inhibiting effect
Male rabbits (Japan original white strain 3.3 to 3.6 kg) were anesthetized with Thiopental sodium and blood was sampled from the carotid artery.

Structure (SMILES)	Blood platelet agg. inh. (percentage inhibition of platelet aggregation)
O=C(c1ccccc1)c1ccccc1F [compound 15]	23.2%
Cc1ccc(C(=O)c2ccccc2)cc1C [compound 72]	28.7%
CCCCc1ccc(C(=O)c2ccc(F)cc2C)cc1 [compound 46]	16.5%
CCCc1ccc(C(=O)c2ccc(C)cc2)cc1 [compound 34]	16.4%
CCCCc1ccc(C(=O)c2ccc(Cl)cc2)cc1 [compound 64]	28.5%
Cc1ccc(C(=O)c2ccccc2)c(C)c1C [compound 31]	18.2%
CCc1ccc(C(=O)c2ccc(C)cc2)cc1 [compound 33]	20.5%
O=C(c1ccc(F)cc1)c1ccc(F)cc1 [compound 114]	26.8%
CCCCCCc1ccc(C(=O)c2c(C)cc(C)cc2C)cc1 [compound 103]	29.5%
CCCCOc1ccc(C(=O)c2ccccc2)cc1 [compound 42]	4.4%
CCCCCCCc1ccc(C(=O)c2ccc(C)cc2)cc1 [compound 85]	18.7%
CCCCc1ccc(CCCC)c(C(=O)c2ccc(C)cc2)c1 [compound 17]	17.3%
COc1cc(OC)c(C(=O)c2ccccc2)c(OC)c1 [compound 76]	16.2%
CCc1ccc(C(=O)c2ccc(OC)cc2)cc1 [compound 107]	20.3%
CCCc1ccc(C(=O)c2ccc(O)cc2)cc1 [compound 104]	25.3%
CCCCc1ccc(C(=O)c2ccc(CCC)cc2)cc1 [compound 98]	28.3%
CCCc1ccc(CCC)c(C(=O)c2ccccc2)c1 [compound 16]	8.6%
Cc1ccc(C(=O)c2ccccc2F)c(C)c1 [compound 10]	18.5%
COc1ccc(OC)c(C(=O)c2ccccc2)c1 [compound 75]	30.7%
CCCCOc1ccc(C(=O)c2c(C)cc(C)cc2C)cc1 [compound 94]	27.9%

Structure (SMILES)	Blood platelet agg. inh. (percentage inhibition of platelet aggregation)
CCc1ccc(C(=O)c2ccc(CC)cc2)cc1 [compound 106]	20.3%
CCCc1ccc(C(=O)c2ccccc2F)cc1 [compound 7]	23.0%
Cc1cc(C)c(C(=O)c2ccccc2)c(C)c1C [compound 79]	26.8%
CCCCCCCc1ccc(C(=O)c2ccccc2)cc1 [compound 25]	7.8%
Cc1cc(C)c(C(=O)c2ccc(Cl)cc2)c(C)c1 [compound 14]	18.1%
CCCCCc1ccc(C(=O)c2ccccc2)cc1 [compound 23]	13.8%
O=C(c1ccccc1)c1ccccc1C(=O)c1ccccc1 [compound 113]	25.8%
CCc1ccc(C(=O)c2ccccc2)cc1 [compound 66]	20.7%
CCCCCCc1ccc(C(=O)C(=O)c2ccccc2)cc1 [compound 56]	20.3%
CCCCc1ccc(C(=O)C(=O)c2ccccc2)cc1 [compound 29]	11.1%
CCCCCc1ccc(C(=O)c2ccccc2F)cc1 [compound 9]	14.6%
CCCCCCc1ccc(C(=O)c2ccccc2)cc1 [compound 24]	10.5%
CCCCCCCCc1ccc(C(=O)c2ccccc2)cc1 [compound 26]	3.1%
CCCCc1ccc(C(=O)c2ccc(OC)cc2)cc1 [compound 18]	9.3%
CCc1cc(CC)c(C(=O)c2ccccc2)c(CC)c1 [compound 13]	14.3%
CCCCCc1ccc(C(=O)c2ccc(CCC)cc2)cc1 [compound 99]	29.5%
COc1ccc(C(=O)c2ccccc2)c(OC)c1 [compound 74]	18.5%
CCCc1ccc(C(=O)Cc2ccccc2)cc1 [compound 49]	28.5%
CCCCCc1ccc(C(=O)c2cccc(C)c2)cc1 [compound 89]	22.6%

Test system: not listed separately
Experiment: in vivo
Conditions: mouse, po
Protocol: Each sample was dissolved in olive oil or dispersed in 1% Tween 20 aqueous solution.

Structure (SMILES)	LD50 at 72 h
CCCC(C)c1ccc(C(=O)c2ccccc2F)cc1 (centres unmarked) [compound 121]	3000 mg/kg
O=C(c1ccccc1)c1ccccc1F [compound 15]	4000 mg/kg
Cc1ccc(C(=O)c2ccccc2)cc1C [compound 72]	1000 mg/kg
CCCCc1ccc(C(=O)c2ccc(F)cc2C)cc1 [compound 46]	2000 mg/kg
CCCc1ccc(C(=O)c2ccc(C)cc2)cc1 [compound 34]	5000 mg/kg
CCCCc1ccc(C(=O)c2ccc(Cl)cc2)cc1 [compound 64]	3000 mg/kg
Cc1ccc(C(=O)c2ccccc2)c(C)c1C [compound 31]	1500 mg/kg
CCc1ccc(C(=O)c2ccc(C)cc2)cc1 [compound 33]	3000 mg/kg
O=C(c1ccc(F)cc1)c1ccc(F)cc1 [compound 114]	2000 mg/kg
CCCCCCc1ccc(C(=O)c2c(C)cc(C)cc2C)cc1 [compound 103]	500 mg/kg
CCCCOc1ccc(C(=O)c2ccccc2)cc1 [compound 42]	3000 mg/kg
CCCCc1ccc(CCCC)c(C(=O)c2ccc(C)cc2)c1 [compound 17]	2000 mg/kg
COc1cc(OC)c(C(=O)c2ccccc2)c(OC)c1 [compound 76]	2500 mg/kg
CCCc1ccc(C(=O)c2ccc(O)cc2)cc1 [compound 104]	3000 mg/kg
CCCCc1ccc(C(=O)c2ccc(CCC)cc2)cc1 [compound 98]	4000 mg/kg
CCCc1ccc(CCC)c(C(=O)c2ccccc2)c1 [compound 16]	1500 mg/kg
Cc1ccc(C(=O)c2ccccc2F)c(C)c1 [compound 10]	500 mg/kg
COc1ccc(OC)c(C(=O)c2ccccc2)c1 [compound 75]	5000 mg/kg
CCCCOc1ccc(C(=O)c2c(C)cc(C)cc2C)cc1 [compound 94]	500 mg/kg
CCc1ccc(C(=O)c2ccc(CC)cc2)cc1 [compound 106]	1000 mg/kg

Structure (SMILES)	LD50 at 72 h
CCCc1ccc(C(=O)c2ccccc2F)cc1 [compound 7]	1500 mg/kg
Cc1cc(C)c(C(=O)c2ccccc2)c(C)c1C [compound 79]	1000 mg/kg
CCCCCCCc1ccc(C(=O)c2ccccc2)cc1 [compound 25]	8000 mg/kg
Cc1cc(C)c(C(=O)c2ccc(Cl)cc2)c(C)c1 [compound 14]	500 mg/kg
CCCCCc1ccc(C(=O)c2ccccc2)cc1 [compound 23]	5000 mg/kg
O=C(c1ccccc1)c1ccccc1C(=O)c1ccccc1 [compound 113]	4000 mg/kg
CCc1ccc(C(=O)c2ccccc2)cc1 [compound 66]	2000 mg/kg
CCCCCCc1ccc(C(=O)C(=O)c2ccccc2)cc1 [compound 56]	10000 mg/kg
CCCCc1ccc(C(=O)C(=O)c2ccccc2)cc1 [compound 29]	10000 mg/kg
CCCCCc1ccc(C(=O)c2ccccc2F)cc1 [compound 9]	3000 mg/kg
CCCCCCc1ccc(C(=O)c2ccccc2)cc1 [compound 24]	6000 mg/kg
CCCCCCCCc1ccc(C(=O)c2ccccc2)cc1 [compound 26]	10000 mg/kg
CCCCc1ccc(C(=O)c2ccc(OC)cc2)cc1 [compound 18]	2000 mg/kg
CCc1cc(CC)c(C(=O)c2ccccc2)c(CC)c1 [compound 13]	2000 mg/kg
CCCCCc1ccc(C(=O)c2ccc(CCC)cc2)cc1 [compound 99]	5000 mg/kg
COc1ccc(C(=O)c2ccccc2)c(OC)c1 [compound 74]	5000 mg/kg
CCCCCCCCc1ccc(C(=O)c2cccc(I)c2)cc1 [compound 161]	5000 mg/kg
CCCc1ccc(C(=O)Cc2ccccc2)cc1 [compound 49]	8000 mg/kg
CCCCCc1ccc(C(=O)c2cccc(C)c2)cc1 [compound 89]	10000 mg/kg

Test system: painful stretchings induced by acetic acid
Experiment: acetic acid induced stretching (analgesic effect)
Conditions: 100 mg/kg oral, 0.7% acetic acid i.p., mice
Protocol: Each sample was orally administrated in the dosage of 100 mg/kg before injection of acetic acid.

Structure (SMILES)	Analgesic (percentage diminution of times of painful stretchings)
O=C(c1ccccc1)c1ccccc1F [compound 15]	18.5%
Cc1ccc(C(=O)c2ccccc2)cc1C [compound 72]	23.4%
CCCCc1ccc(C(=O)c2ccc(F)cc2C)cc1 [compound 46]	13.4%
CCCc1ccc(C(=O)c2ccc(C)cc2)cc1 [compound 34]	12.1%
CCCCc1ccc(C(=O)c2ccc(Cl)cc2)cc1 [compound 64]	6.6%
Cc1ccc(C(=O)c2ccccc2)c(C)c1C [compound 31]	9.5%
CCc1ccc(C(=O)c2ccc(C)cc2)cc1 [compound 33]	15.5%
O=C(c1ccc(F)cc1)c1ccc(F)cc1 [compound 114]	18.3%
CCCCCCc1ccc(C(=O)c2c(C)cc(C)cc2C)cc1 [compound 103]	14.2%
CCCCOc1ccc(C(=O)c2ccccc2)cc1 [compound 42]	26.8%
CCCCc1ccc(CCCC)c(C(=O)c2ccc(C)cc2)c1 [compound 17]	10.3%
COc1cc(OC)c(C(=O)c2ccccc2)c(OC)c1 [compound 76]	13.9%
CCCc1ccc(C(=O)c2ccc(O)cc2)cc1 [compound 104]	13.2%
CCCCc1ccc(C(=O)c2ccc(CCC)cc2)cc1 [compound 98]	16.4%
CCCc1ccc(CCC)c(C(=O)c2ccccc2)c1 [compound 16]	12.4%
Cc1ccc(C(=O)c2ccccc2F)c(C)c1 [compound 10]	20.3%
COc1ccc(OC)c(C(=O)c2ccccc2)c1 [compound 75]	22.0%
CCCCOc1ccc(C(=O)c2c(C)cc(C)cc2C)cc1 [compound 94]	15.8%
CCc1ccc(C(=O)c2ccc(CC)cc2)cc1 [compound 106]	7.3%

Structure (SMILES)	Analgesic (percentage diminution of times of painful stretchings)
CCCc1ccc(C(=O)c2ccccc2F)cc1 [compound 7]	15.0%
Cc1cc(C)c(C(=O)c2ccccc2)c(C)c1C [compound 79]	20.8%
CCCCCCCc1ccc(C(=O)c2ccccc2)cc1 [compound 25]	48.6%
Cc1cc(C)c(C(=O)c2ccc(Cl)cc2)c(C)c1 [compound 14]	19.2%
CCCCCc1ccc(C(=O)c2ccccc2)cc1 [compound 23]	10.1%
O=C(c1ccccc1)c1ccccc1C(=O)c1ccccc1 [compound 113]	14.5%
CCc1ccc(C(=O)c2ccccc2)cc1 [compound 66]	15.7%
CCCCCCc1ccc(C(=O)C(=O)c2ccccc2)cc1 [compound 56]	20.5%
CCCCc1ccc(C(=O)C(=O)c2ccccc2)cc1 [compound 29]	2.7%
CCCCCc1ccc(C(=O)c2ccccc2F)cc1 [compound 9]	15.3%
CCCCCCc1ccc(C(=O)c2ccccc2)cc1 [compound 24]	47.7%
CCCCCCCCc1ccc(C(=O)c2ccccc2)cc1 [compound 26]	35.9%
CCCCc1ccc(C(=O)c2ccc(OC)cc2)cc1 [compound 18]	20.1%
CCc1cc(CC)c(C(=O)c2ccccc2)c(CC)c1 [compound 13]	15.8%
CCCCCc1ccc(C(=O)c2ccc(CCC)cc2)cc1 [compound 99]	15.5%
COc1ccc(C(=O)c2ccccc2)c(OC)c1 [compound 74]	24.2%
CCCc1ccc(C(=O)Cc2ccccc2)cc1 [compound 49]	18.2%
CCCCCc1ccc(C(=O)c2cccc(C)c2)cc1 [compound 89]	4.3%

Reference: patent US4124726A, “Anti-inflammatory agent of benzoyl derivative” (priority 1976, dated 1978)
